Laboratory results from paper PMC11195807, “Development of a multi-targeted chemotherapeutic approach based on G-quadruplex stabilisation and carbonic anhydrase inhibition” (Journal of Enzyme Inhibition and Medicinal Chemistry, 2024).

Tests used:
Tel23 = test: CD melting experiments, Tel23 GQ; assay type: binding, human; details: for ΔT1/2 Tel23: 2 molar equiv compound, T1/2 of DNA alone 53.5 °C; for ΔΔT1/2 Tel23: ΔT1/2 of compound minus ΔT1/2 of berberine, 2 molar equiv
Description: (§1) The 21 synthesised MTDLs were screened for their ability to bind to and stabilise DNA GQ-forming sequences, compared to berberine, by CD experiments. Indeed, circular dichroism has shown to be outstandingly useful and informative for noncanonical nucleic acid secondary structures. For this purpose, a G-rich 23-nucleotide truncation (23-nt) of the human telomeric sequence (Tel23) and two G-rich motifs from the promoter regions of c-KIT (c-Kit1) and c-MYC (c-Myc) oncogenes were employed. First, the overall topology adopted by each DNA sequence in K^+-containing buffer was verified by CD spectra. […] GQ conformation (Figure S1, Supporting Information). On the other hand, c-Kit1 and c-Myc sequences adopted a parallel GQ conformation, showing a distinctive positive band at around 260 nm and a negative one at ∼240 nm in their CD spectra (Figures S2 and S3, Supporting Information).
(§2) Afterwards, the GQ-stabilising properties of the molecules were assessed by CD melting experiments, measuring the differences in the apparent melting temperatures of the DNA in the presence and absence of compounds (ΔT1/2) (Figures S4–S6 and Table S2, Supporting Information). […] This could be explained by considering the higher accessibility of the external G-tetrads in the case of parallel GQs compared to the hybrid one[52], which would allow the additional CAI moiety of conjugated compounds to be better accommodated in the binding site. […] . […] .

hCA I = target: T1, hCA I (Homo sapiens, UniProt P00915); test: stopped-flow CO2 hydrase assay, hCA I; assay type: biochemical
T1 construct: made in house
T1 sequence (P00915 whole entry): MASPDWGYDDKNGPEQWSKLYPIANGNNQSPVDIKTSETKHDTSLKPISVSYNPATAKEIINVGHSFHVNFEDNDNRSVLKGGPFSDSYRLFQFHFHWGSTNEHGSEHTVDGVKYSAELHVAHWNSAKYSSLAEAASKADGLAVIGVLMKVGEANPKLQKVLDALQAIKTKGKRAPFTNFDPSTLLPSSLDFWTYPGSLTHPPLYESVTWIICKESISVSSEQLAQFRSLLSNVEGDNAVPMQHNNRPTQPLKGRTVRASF
Method: (§3) An Applied Photophysics stopped-flow instrument has been used for assaying the CA-catalysed CO2 hydration activity, as reported earlier. The enzyme concentrations were in the range 5–12 nM. All hCA isoforms were recombinant proteins, being obtained in-house as reported earlier.

hCA II = target: T2, hCA II (Homo sapiens, UniProt P00918); test: stopped-flow CO2 hydrase assay, hCA II; assay type: biochemical
T2 construct: made in house
Description: . The structure-activity relationship is discussed separately for the two compound subsets. Another code pattern is included for the MTDLs in Table 1, which indicates the derivative CAI type (sulphonamide, S or coumarin, C) and the number of atoms in the spacers connecting either berberine and the triazole (carbon atoms) or the triazole and the benzenesulfonamide/coumarin scaffolds (carbon or oxygen atoms).
as §3

c-Kit1 = test: CD melting experiments, c-Kit1 GQ; assay type: binding; details: for ΔT1/2 c-Kit1: 2 molar equiv compound, T1/2 of DNA alone 55.0 °C; for ΔΔT1/2 c-Kit1: ΔT1/2 of compound minus ΔT1/2 of berberine, 2 molar equiv
Description: as §1, §2

hCA XII = target: T3, hCA XII (Homo sapiens, UniProt O43570); test: stopped-flow CO2 hydrase assay, hCA XII; assay type: biochemical; details: for Selectivity index (SI) I/XII: hCA XII over hCA I; for Selectivity index (SI) II/XII: hCA XII over hCA II; for Ki: mean ± SEM of three assays
T3 construct: made in house
T3 sequence (O43570 25-354): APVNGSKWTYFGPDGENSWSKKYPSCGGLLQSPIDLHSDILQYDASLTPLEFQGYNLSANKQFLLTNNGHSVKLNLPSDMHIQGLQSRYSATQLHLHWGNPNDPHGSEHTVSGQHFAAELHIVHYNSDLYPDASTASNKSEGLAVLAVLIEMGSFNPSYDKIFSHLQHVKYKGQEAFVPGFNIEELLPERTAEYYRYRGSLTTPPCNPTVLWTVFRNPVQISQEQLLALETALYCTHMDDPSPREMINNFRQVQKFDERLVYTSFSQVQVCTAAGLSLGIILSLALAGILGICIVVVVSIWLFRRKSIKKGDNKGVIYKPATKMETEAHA
Description: (§4) An Applied Photophysics stopped-flow instrument has been used for assaying the CA-catalysed CO2 hydration activity, as reported earlier. […] All hCA isoforms were recombinant proteins, being obtained in-house as reported earlier.

Hairpin = test: CD melting experiments, hairpin DNA duplex; details: 2 molar equiv compound, T1/2 of DNA alone 66.0 °C
Method: To evaluate the possible binding and stabilisation of double-stranded DNA, a 27-nt long hairpin-forming sequence (Hairpin) was employed.
In particular, the following DNA sequences were synthesised and employed for the experiments: d([sequence]) (c-Kit1), d([sequence]) (c-Myc), d([sequence]) (Tel23), and d([sequence]) (Hairpin). Oligonucleotides were dissolved in the proper buffer and their concentration was measured by UV absorption at 90 °C, as previously reported[80]^,[81]. To achieve the correct folding of the sequences, the DNA solutions were heated in a water bath at 90 °C for 5 min, and then allowed to cool slowly to room temperature overnight. Then, DNA samples were stored at 4 °C for 24 h, before data acquisition.
The samples were prepared by dissolving the oligonucleotides in 5 mM KH2PO4/K2HPO4 buffer (pH 7.0) containing 20 mM KCl (or LiCl in the case of c-Myc because of its high thermal stability). DNA concentrations of 20 µM for GQs and 30 µM for Hairpin were used. For each compound, a 10 mM stock solution in 100% DMSO was prepared. […] CD spectra were acquired at 20 and 100 °C, in the 230–320 nm wavelength range, averaged over three scans and subtracted of the buffer baseline. The scanning speed was set to 100 nm/min, with a 0.5 s response time, and 1 nm bandwidth. CD melting experiments were carried out in the 20–100 °C temperature range, with 1 °C/min heating rate, by following changes in the CD signal at the wavelengths of the maximum CD intensity (i.e. 263 nm for c-Kit1 and c-Myc, and 290 nm for Tel23). As for Hairpin, CD melting curves were recorded by following the changes in the CD signal at 252 nm (the wavelength of the minimum CD intensity). CD melting curves were normalised between 0 and 1. […] The ΔT1/2 values correspond to the difference in the T1/2 values of the nucleic acid structures in the presence and absence of the compounds. All experiments were performed in duplicate, and the reported values are the mean of the two measurements.

c-Myc = test: CD melting experiments, c-Myc GQ; assay type: binding; details: for ΔT1/2 c-Myc: 1 molar equiv compound, T1/2 of DNA alone 70.0 °C; for ΔΔT1/2 c-Myc: ΔT1/2 of compound minus ΔT1/2 of berberine, 1 molar equiv
Description: as §1, §2

hCA IX = target: T4, hCA IX (Homo sapiens, UniProt Q16790); test: stopped-flow CO2 hydrase assay, hCA IX; assay type: biochemical; details: for Selectivity index (SI) I/IX: hCA IX over hCA I; for Selectivity index (SI) II/IX: hCA IX over hCA II; for Ki: mean ± SEM of three assays
T4 construct: made in house
Description: as §4

[1] = sulphonamides, inhibitor-enzyme incubation 15 min, mean ± SEM of three assays
[2] = sulphonamides, inhibitor-enzyme incubation 15 min
[3] = coumarins, inhibitor-enzyme incubation 6 h

SMILES: COc1ccc2cc3[n+](cc2c1OCCn1cc(COc2ccc(S(N)(=O)=O)cc2)nn1)CCc1cc2c(cc1-3)OCO2 [Compound 27, 10-Methoxy-9–(2-(4-((4-sulfamoylphenoxy)methyl)-1H-1,2,3-triazol-1-yl)ethoxy)-5,6-dihydro-[1,3]dioxolo[4,5-g]isoquinolino[3,2-a]isoquinolin-7-ium hexafluorophosphate]
- ΔT1/2 Tel23 (Tel23): 7.5 °C
- ΔΔT1/2 Tel23 (Tel23): −2.0 °C
- Ki (hCA I; [1]): 940 ± 52.1 nM
- Ki (hCA II; [1]): 6 nM
- ΔT1/2 c-Kit1 (c-Kit1): 18.5 °C
- ΔΔT1/2 c-Kit1 (c-Kit1): 5.5 °C
- Selectivity index (SI) I/XII (hCA XII): 213.7
- Selectivity index (SI) II/XII (hCA XII): 1.4
- Ki (hCA XII; [2]): 4.4 nM
- ΔT1/2 Hairpin (Hairpin): -0.5 °C
- ΔT1/2 c-Myc (c-Myc): 18.5 °C
- ΔΔT1/2 c-Myc (c-Myc): 6.5 °C
- Selectivity index (SI) I/IX (hCA IX): 1446
- Selectivity index (SI) II/IX (hCA IX): 9.2
- Ki (hCA IX; [2]): 0.65 ± 0.05 nM

SMILES: COc1ccc2cc3[n+](cc2c1OCCCn1cc(-c2ccc(S(N)(=O)=O)cc2)nn1)CCc1cc2c(cc1-3)OCO2 [Compound 28, 10-Methoxy-9–(3-(4–(4-sulfamoylphenyl)-1H-1,2,3-triazol-1-yl)propoxy)-5,6-dihydro-[1,3]dioxolo[4,5-g]isoquinolino[3,2-a]isoquinolin-7-ium hexafluorophosphate]
- ΔT1/2 Tel23 (Tel23): 6.0 °C
- ΔΔT1/2 Tel23 (Tel23): −3.5 °C
- Ki (hCA I; [1]): 872 ± 55.9 nM
- Ki (hCA II; [1]): 66.8 ± 3.9 nM
- ΔT1/2 c-Kit1 (c-Kit1): 16.5 °C
- ΔΔT1/2 c-Kit1 (c-Kit1): 3.5 °C
- Selectivity index (SI) I/XII (hCA XII): 62.3
- Selectivity index (SI) II/XII (hCA XII): 4.8
- Ki (hCA XII; [2]): 14 ± 1 nM
- ΔT1/2 Hairpin (Hairpin): -2.0 °C
- ΔΔT1/2 c-Myc (c-Myc): >13.0 °C
- ΔΔT1/2 c-Myc (c-Myc; listed as S-3,0): > 13.0 °C
- Selectivity index (SI) I/IX (hCA IX): 1194
- Selectivity index (SI) II/IX (hCA IX): 91.5
- Ki (hCA IX; [2]): 0.73 ± 0.04 nM

SMILES: COc1ccc2cc3[n+](cc2c1OCCCCn1cc(COc2ccc(S(N)(=O)=O)cc2)nn1)CCc1cc2c(cc1-3)OCO2 [Compound 31, 10-Methoxy-9–(4-(4-((4-sulfamoylphenoxy)methyl)-1H-1,2,3-triazol-1-yl)butoxy)-5,6-dihydro-[1,3]dioxolo[4,5-g]isoquinolino[3,2-a]isoquinolin-7-ium hexafluorophosphate]
- ΔT1/2 Tel23 (Tel23): 8.0 °C
- ΔΔT1/2 Tel23 (Tel23): −1.5 °C
- Ki (hCA I; [1]): 916 ± 57.9 nM
- Ki (hCA II; [1]): 71.5 ± 5.3 nM
- ΔT1/2 c-Kit1 (c-Kit1): 15.5 °C
- ΔΔT1/2 c-Kit1 (c-Kit1): 2.5 °C
- Selectivity index (SI) I/XII (hCA XII): 127.2
- Selectivity index (SI) II/XII (hCA XII): 9.9
- Ki (hCA XII; [2]): 7.2 ± 0.5 nM
- ΔT1/2 Hairpin (Hairpin): +0.2 °C
- ΔT1/2 c-Myc (c-Myc): 13.0 °C
- ΔΔT1/2 c-Myc (c-Myc): 1.0 °C
- Selectivity index (SI) I/IX (hCA IX): 1308
- Selectivity index (SI) II/IX (hCA IX): 102.1
- Ki (hCA IX; [2]): 0.71 ± 0.04 nM

SMILES: COc1ccc2cc3[n+](cc2c1OCCCCCn1cc(COc2ccc(S(N)(=O)=O)cc2)nn1)CCc1cc2c(cc1-3)OCO2 [Compound 33, 10-Methoxy-9-((5–(4-((4-sulfamoylphenoxy)methyl)-1H-1,2,3-triazol-1-yl)pentyl)oxy)-5,6-dihydro-[1,3]dioxolo[4,5-g]isoquinolino[3,2-a]isoquinolin-7-ium hexafluorophosphate]
- ΔT1/2 Tel23 (Tel23): 10.5 °C
- ΔΔT1/2 Tel23 (Tel23): 1.0 °C
- Ki (hCA I; [1]): 219 ± 16.2 nM
- Ki (hCA II; [1]): 41.1 ± 2.7 nM
- ΔT1/2 c-Kit1 (c-Kit1): 18.5 °C
- ΔΔT1/2 c-Kit1 (c-Kit1): 5.5 °C
- Selectivity index (SI) I/XII (hCA XII): 75.7
- Selectivity index (SI) II/XII (hCA XII): 14.2
- Ki (hCA XII; [2]): 2.9 ± 0.1 nM
- ΔT1/2 Hairpin (Hairpin): +0.2 °C
- ΔT1/2 c-Myc (c-Myc): 12.5 °C
- ΔΔT1/2 c-Myc (c-Myc): 0.5 °C
- Selectivity index (SI) I/IX (hCA IX): 406.5
- Selectivity index (SI) II/IX (hCA IX): 76.1
- Ki (hCA IX; [2]): 0.54 ± 0.03 nM

SMILES: COc1ccc2cc3[n+](cc2c1OCCCn1cc(CCOc2ccc4ccc(=O)oc4c2)nn1)CCc1cc2c(cc1-3)OCO2 [Compound 35, 10-Methoxy-9–(3-(4–(2-((2-oxo-2H-chromen-7-yl)oxy)ethyl)-1H-1,2,3-triazol-1-yl)propoxy)-5,6-dihydro-[1,3]dioxolo[4,5-g]isoquinolino[3,2-a]isoquinolin-7-ium hexafluorophosphate]
- ΔT1/2 Tel23 (Tel23): 8.0 °C
- ΔΔT1/2 Tel23 (Tel23): −1.5 °C
- Ki (hCA I; [3]): > 100000 nM
- Ki (hCA II; [3]): > 100000 nM
- ΔT1/2 c-Kit1 (c-Kit1): 18.5 °C
- ΔΔT1/2 c-Kit1 (c-Kit1): 5.5 °C
- Ki (hCA XII; [3]): 18.9 ± 0.9 nM
- Selectivity index (SI) I/XII (hCA XII): > 529.1
- Selectivity index (SI) II/XII (hCA XII): > 529.1
- ΔT1/2 Hairpin (Hairpin): +2.0 °C
- ΔT1/2 c-Myc (c-Myc): 18.5 °C
- ΔΔT1/2 c-Myc (c-Myc): 6.5 °C
- Ki (hCA IX; [3]): 34.5 ± 2.4 nM
- Selectivity index (SI) I/IX (hCA IX): > 289.9
- Selectivity index (SI) II/IX (hCA IX): > 289.9

SMILES: COc1ccc2cc3[n+](cc2c1OCCCn1cc(CCCOc2ccc4ccc(=O)oc4c2)nn1)CCc1cc2c(cc1-3)OCO2 [Compound 36, 10-Methoxy-9–(3-(4–(3-((2-oxo-2H-chromen-7-yl)oxy)propyl)-1H-1,2,3-triazol-1-yl)propoxy)-5,6-dihydro-[1,3]dioxolo[4,5-g]isoquinolino[3,2-a]isoquinolin-7-ium hexafluorophosphate]
- ΔT1/2 Tel23 (Tel23): 12.5 °C
- ΔΔT1/2 Tel23 (Tel23): 3.0 °C
- Ki (hCA I; [3]): > 100000 nM
- Ki (hCA II; [3]): > 100000 nM
- ΔT1/2 c-Kit1 (c-Kit1): 17.0 °C
- ΔΔT1/2 c-Kit1 (c-Kit1): 4.0 °C
- Ki (hCA XII; [3]): 28.4 ± 1.7 nM
- Selectivity index (SI) I/XII (hCA XII): > 352.1
- Selectivity index (SI) II/XII (hCA XII): > 352.1
- ΔT1/2 Hairpin (Hairpin): +0.5 °C
- ΔT1/2 c-Myc (c-Myc): 15.0 °C
- ΔΔT1/2 c-Myc (c-Myc): 3.0 °C
- Ki (hCA IX; [3]): 58.9 ± 3.9 nM
- Selectivity index (SI) I/IX (hCA IX): > 169.8
- Selectivity index (SI) II/IX (hCA IX): > 169.8

SMILES: COc1ccc2cc3[n+](cc2c1OCCCCn1cc(CCOc2ccc4ccc(=O)oc4c2)nn1)CCc1cc2c(cc1-3)OCO2 [Compound 38, 10-Methoxy-9–(4-(4–(2-((2-oxo-2H-chromen-7-yl)oxy)ethyl)-1H-1,2,3-triazol-1-yl)butoxy)-5,6-dihydro-[1,3]dioxolo[4,5-g]isoquinolino[3,2-a]isoquinolin-7-ium hexafluorophosphate]
- ΔT1/2 Tel23 (Tel23): 7.5 °C
- ΔΔT1/2 Tel23 (Tel23): −2.0 °C
- Ki (hCA I; [3]): > 100000 nM
- Ki (hCA II; [3]): > 100000 nM
- ΔT1/2 c-Kit1 (c-Kit1): 17.5 °C
- ΔΔT1/2 c-Kit1 (c-Kit1): 4.5 °C
- Ki (hCA XII; [3]): 16.7 ± 1.2 nM
- Selectivity index (SI) I/XII (hCA XII): > 598.8
- Selectivity index (SI) II/XII (hCA XII): > 598.8
- ΔT1/2 Hairpin (Hairpin): -2.0 °C
- ΔT1/2 c-Myc (c-Myc): 15.0 °C
- ΔΔT1/2 c-Myc (c-Myc): 3.0 °C
- Ki (hCA IX; [3]): 30.1 ± 1.8 nM
- Selectivity index (SI) I/IX (hCA IX): > 332.2
- Selectivity index (SI) II/IX (hCA IX): > 332.2
